Assay results taken from patent US20220023358A1, “COMBINATION THERAPIES OF MICROORGANISMS AND IMMUNE MODULATORS FOR USE IN TREATING CANCER” (Synlogic Operating Company, Inc., priority 2018, published 2022).

Assays:
[1] = test system: WT, TLR4−/− and STING−/− BMDCs; test: Cytokine mRNA in WT, TLR4−/− and STING−/− BMDCs; type: cell-based, murine; conditions: 4 hours
Method: (§1) In indicated groups cells were pre-treated with for lh with Cytochalasin D (10 μM). Macrophages or BMDCs incubated in media alone served as a negative control. Cells were analyzed for the upregulation of Ifnbl and 116 mRNA (FIGS. 7D-7G). WT, TLR4^−/− and STING-^−/− BMDCs were treated with Control EcN (MOI: 25), pre-induced SYN1891 (MOI: 25), LPS (100 ng/mL), or smSTING agonist (5 μg/mL) for 4 hours. Cells were analyzed for the upregulation of Ifnb1, Il6 and Il12a mRNA (FIGS. 7H-7J). Data are representative of two or more independent experiments with mean and standard deviation shown. **P<0.005; ***P<0.0005; ****P<0.00001; two-tailed unpaired Student's t-test comparing the indicated groups.
LPS is an integral component of the outer membrane of Gram-negative bacteria and as such LPS recognition by TLR4 plays an important role in the induction of immune responses by these microbes.

[2] = test system: RAW 264.7 macrophages or WT BMDCs; test: Cytokine mRNA in RAW 264.7 macrophages or WT BMDCs, with or without Cytochalasin D; type: cell-based, murine
Method: as §1
To evaluate the mechanism of action of SYNB1891 in the induction of type I IFNs, bacterial phagocytosis was blocked using cytochalasin D. Cytochalasin D inhibits actin polymerization and prevents phagocytosis, yet it has minimal effect on endocytosis/pinocytosis of soluble small molecules. […] Therefore, phagocytosis of SYNB1891 is required for intracellular CDA release and STING activation in target cells, providing a natural mechanism for preferential activation of APCs in the tumor.

NK cells = conditions: first-in-human clinical trial; cited from earlier work
[3] = test system: Hyaluronan or Hyaluronic acid (HA); conditions: mouse PDA tumors; cited from earlier work

Nc1ncnc2c1ncn2[C@@H]1O[C@@H]2COP(O)(=S)O[C@@H]3C(O)[C@@H](COP(O)(=S)O[C@H]2[C@H]1O)O[C@H]3n1cnc2c(N)ncnc21 (stereo partly drawn) [smSTING agonist, 2′3′-c-di-AM(PS)2 (Rp,Rp)]
IFNβ1 expression in STING−/− BMDCs ([1]; STING−/− BMDCs): completely abrogated
IFNβ1 expression in TLR4−/− BMDCs ([1]; TLR4−/− BMDCs): preserved
Cytokines expressed ([2]; 4 hours, 5 μg/mL): led only to IFNβ1 expression
IFNβ1 induction, effect of Cytochalasin D ([2]; Cytochalasin D pre-treatment): did not affect

recombinant human IL-15: recombinant human IL-15 cytokine
Expansion of NK cells (NK cells): 10 fold

B1: PEGPH20: PEGylated form of rHuPH20, a hyaluronidase (protein, UniProt P38567 36-490, looked up)
Hyaluronidase PH-20: LNFRAPPVIPNVPFLWAWNAPSEFCLGKFDEPLDMSLFSFIGSPRINATGQGVTIFYVDRLGYYPYIDSITGVTVNGGIPQKISLQDHLDKAKKDITFYMPVDNLGMAVIDWEEWRPTWARNWKPKDVYKNRSIELVQQQNVQLSLTEATEKAKQEFEKAGKDFLVETIKLGKLLRPNHLWGYYLFPDCYNHHYKKPGYNGSCFNVEIKRNDDLSWLWNESTALYPSIYLNTQQSPVAATLYVRNRVREAIRVSKIPDAKSPLPVFAYTRIVFTDQVLKFLSQDELVYTFGETVALGASGIVIWGTLSIMRSMKSCLLLDNYMETILNPYIINVTLAAKMCSQVLCQEQGVCIRKNWNSSDYLHLNPDNFAIQLEKGGKFTVRGKPTLEDLEQFSEKFYCSCYSTLSCKEKADVKDTDAVDVCIADGVCIDAFLKPPMETEEPQIFYNASPSTLS
modifications: PEG
notes: PEGylated form of rHuPH20, a hyaluronidase
Interstitial fluid pressure after treatment [3]: 20-30 mmHg
